We go through 13 molecules from ChEMBL document CHEMBL1128596, “Thienylimidazo[2,1-b]thiazoles as inhibitors of mitochondrial NADH dehydrogenase” (J Med Chem, 1995).

Test [1] is described as follows: Compound was tested for it's ability to inhibit NADH UBQ reductase activity in parascaris mitochondrial particles.
A short description of test [2]: Compound was tested for it's ability to inhibit NADH UBQ reductase activity in beef mitochondrial particles. More on the design: species or system Bos taurus.
The species entered for a further test is Bos taurus. Description: Residual NADH:UBQ:DCIP reductase activity in beef mitochondrial particles. More on the design: concentration or dose not given beside the values.
In another test the test system is Parascaris equorum. Description: Residual NADH:UBQ:DCIP reductase activity in parascaris mitochondrial particles. The arrangement: concentration or dose not given beside the values.

Molecules are shown by their SMILES.

The term IC50 denotes the midpoint of a concentration-inhibition curve. As a reminder, the residual activity is what remains of the control signal, in per cent.

Turning to `Cc1cn2cc(-c3cccs3)nc2s1`, the half-maximal inhibitory concentration (IC50) in test [1] came to 220 µM; in test [2], 70 µM. Besides, the residual activity in the test listed under Bos taurus was 28%; in the test on Parascaris equorum, 59%.

In the case of `c1csc(-c2cn3ccsc3n2)c1`, the residual activity in the test listed under Bos taurus was 57%; in the test on Parascaris equorum, 79%.

Turning to `c1cc(-c2cn3ccsc3n2)cs1`, the values for the residual activity in the test filed under Bos taurus and in the test on Parascaris equorum were 68% and 83%, respectively.

On to `Cn1c(-c2ccccc2)c(/C=C/c2cccs2)[n+]2c1SCC2`, for which the residual activity is 77% in the test filed under Bos taurus and 92% with Parascaris equorum.

On to `Cn1c(Cl)c(/C=C\c2cccs2)[n+]2c1SCC2`, for which the residual activity was found to be 85% in the test filed under Bos taurus and 92% in the test with Parascaris equorum.

Turning to `Cn1c(Cl)c(/C=C/c2cccs2)[n+]2c1SCC2`, the values for the residual activity in the test listed under Bos taurus and with Parascaris equorum were 91% and 88%, respectively.

Take `Cc1csc2nc(-c3cccs3)cn12`: the IC50 in test [1] is 380 µM; in test [2], 90 µM. Also, the figures for the residual activity in the test filed under Bos taurus and in the test on Parascaris equorum were 38% and 70%, respectively.

As to `C=C(C)[C@H]1Cc2c(ccc3c2O[C@@H]2COc4cc(OC)c(OC)cc4[C@@H]2C3=O)O1`, the residual activity in the test listed under Bos taurus is 34%; in the test with Parascaris equorum, 65%.

Take `Cn1c(-c2ccccc2)c(/C=C/c2cccs2)[n+]2ccsc12`: the residual activity in the test filed under Bos taurus was 81%; with Parascaris equorum it was 94%.

Turning to `Clc1cn2cc(-c3cccs3)nc2s1`, the residual activity in the test listed under Bos taurus amounted to 40%; in the test with Parascaris equorum it was 75%.

Regarding `Cc1csc2nc(-c3ccsc3)cn12`, the half-maximal inhibitory concentration (IC50) in test [2] came to 210 µM. In addition, the residual activity is 43% in the test listed under Bos taurus and 75% in the test with Parascaris equorum.

In test [2], `Cc1cn2cc(-c3ccsc3)nc2s1` came in with an IC50 of 140 µM. Further, the residual activity in the test listed under Bos taurus came out at 40%; in the test with Parascaris equorum, 73%.

With `c1csc(-c2cn3c(n2)SCC3)c1`, the results for the residual activity in the test listed under Bos taurus and in the test with Parascaris equorum were 68% and 88%, respectively.
